Measured values from US11291620B2, “Avobenzone-dendrimer conjugates” (NEW YORK UNIVERSITY, priority 2018, dated 2022).

Key:
[1] = UV-Vis calibration: molar attenuation coefficient at 357 nM in isopropanol; format: physicochemical; conditions: run in triplicate, per mole of compound or dendrimer conjugate
Source text: Avobenzone and the avobenzone conjugates were each dissolved in isopropanol and the titrations were run in triplicate to calculate extinction coefficients for each conjugate.
UV analysis was run on each conjugate to test the absorbance and degradation profile of each compound. The linker and scaffold must not shift the UV absorbance profile of the avobenzone if it is to be used as an additive in sunscreen formulations. Otherwise, it might no longer be active as a UV-A filter. UV calibrations were run for free avobenzone, avobenzone with linker, and each class and generation of dendrimer-avobenzone conjugate to compare the modified molecules to the original under the same conditions.
The molar attenuation coefficient for each compound was calculated at 357 nM, the absorption maximum in the UVA-1 range. […] Additionally, no shift was observed after ligation to the dendrimer scaffolds.
Extinction coefficient curves were taken in isopropanol, a protic solvent known to stabilize avobenzone under UV irradiation, allowing the curve to be run on a single sample of avobenzone per curve without loss of activity (Mturi et al., J. Phoochem. Pholobiol. 200:410-20 (2008), which is hereby incorporated by reference in its entirety).

[2] = UV decay / UV stability: change of absorbance under UV lamp over four hours; format: physicochemical; conditions: ethyl acetate, UV lamp 365 nM, peak at 357 nm, triplicate, average
Source text: Avobenzone and the avobenzone conjugates were each dissolved in ethyl acetate, unless otherwise noted, and sealed in airtight quartz cuvettes. […] The avobenzone decay curves were run in triplicate and extra decay curves run in duplicate. UV stability experiments were run in triplicate in ethyl acetate (Mturi et al., J. Photochem. […] Unlike isopropanol, this solvent is known to encourage degradation and was chosen so that the experimental time scales would be similar to the time scale of sun exposure in vivo. Due to FDA regulations, all commercial sunscreens are labeled with instructions to reapply every two hours. The avobenzone systems were tested over four hours, double that time. The avobenzone, avobenzone linker, or avobenzone-dendrimer conjugate was dissolved in a small amount of isopropanol. In each study 90 μL of the stock solution was added to 3 mL of ethyl acetate and sealed in an airtight quartz cuvette. The initial absorptions were measured and the samples were sealed in quartz cuvettes and left under a UV lamp emitting at 365 nM. The absorption profile was measured at regular intervals.

molar attenuation coefficient (for the compound / conjugate) [1]	final absorbance as % of the initial absorbance [2]	SMILES
1,039 M^−1 cm^−1	90.7±1.4%	COc1ccc(C(=O)CC(=O)c2ccc(C(C)(C)C)cc2)cc1 [bare avobenzone, 4-Tert-butyl-4′-methoxydibenzoylmethane]
2,899 M^−1 cm^−1	108±1.8%	COc1ccc(C(=O)C(CCCCCCCCCCCO)C(=O)c2ccc(C(C)(C)C)cc2)cc1 (stereo not shown) [avobenzone with linker]
